Patent publication US11738034B2, “Triphenylphosphonium-derivative compounds for eradicating cancer stem cells” (LUNELLA BIOTECH, INC., priority 2017, dated 2023)
Values belong to the compound of their own block, whether it stands above or below them.

Columns and labels:
MCF-7 cells = assay: Mitochondrial oxygen consumption rate (OCR), Seahorse XFe96; format: cell-based, human; details: MCF-7, Seahorse, FIGS. 6-8
Excerpt: Some embodiments of the present approach relate to identifying TPP-derivatives compounds that target mitochondria in CSCs and represent potential anti-cancer therapies. To further validate that the ATP level reduction of the TPP compounds was indeed due to the inhibition of mitochondrial function, we directly measured mitochondrial oxygen consumption rates (OCR) using the Seahorse XFe96 metabolic flux analyser.
FIG. 6 illustrates the impaired mitochondrial function of MCF-7 cells after treatment with TPP Compound 1. FIGS. 7A and 7B illustrate the impaired mitochondrial function of MCF-7 cells after treatment with either TPP Compound 2 or TPP Compound 3. […] Oxygen consumption rate (OCR) was measured with a Seahorse XF96 Extracellular Flux Analyzer. Data are represented as mean+/−SEM. […] For FIG. 6, **p<0.01; ***p<0.001; indicates significance, all relative to the control. […] For FIG. 7, **p<0.01; ***p<0.001; indicates significance, all relative to the control. […] And for FIG. 8, **p<0.01; ***p<0.001; indicates significance, all relative to the control.
For measuring the mitochondrial OCR, mitochondrial function was determined by using the XF Cell Mito Stress Test Kit (Seahorse Bioscience, MA, USA) with a Seahorse XFe96 Extracellular Flux Analyzer (Seahorse Bioscience, MA, USA). MCF-7 cells were seeded in a specialized 96-well tissue culture plate (XF96 microplate). The next day, the TPP derivatives were added and the plate was incubated for 72 hours. Before the experiment media was changed to XF base medium (including 1 mM pyruvate, 2 mM glutamine and 10 mM glucose), cells were incubated at 37° C. in a CO2-free atmosphere for one hour before measurement. After detection of basal OCR (an indicator for mitochondrial respiration) OCR responses were evaluated towards the application of oligomycin (1 μM), FCCP (600 nM), and the combination of antimycin (1 μM) and rotenone (1 μM). From these measurements various parameters of mitochondrial function were determined. To determine cell viability in the measured wells sulphorodamine (SRB) assay was performed. Oxygen consumption rate values were then normalized to the given SRB values.

MCF-7 breast CSCs = assay: 3D Spheroid (mammosphere) assay, CSC propagation; format: cell-based, human; details: MCF-7, treated for 5 days in mammosphere media; read-out: IC-50, CSC propagation (mammosphere formation)
Procedure: Following validation, the inventors evaluated the effects of these TPP-derivative compounds on the propagation of CSCs, using the mammosphere assay as a read-out. […] The data presented in FIG. 9, from left to right, are TPP-derivatives in the following order: 2,4-dichlorobenzyl-TPP (black); 1-naphthylmethyl-TPP (inclined lines); 3-methylbenzyl-TPP (dotted lines); 2-chlorobenzyl-TPP (white); 2-butene-1,4-bis-TPP (horizontal lines). Cells were treated for 5 days in mammosphere media. Data are represented as mean+/−SEM.
For the 3D Spheroid (mammosphere) assay, a single cell suspension of MCF-7 cells was prepared using enzymatic (lx Trypsin-EDTA, Sigma Aldrich, #T3924) and manual disaggregation (25 gauge needle) to create a single cell suspension. […] Different TPP derivatives were previously diluted in the mammosphere media before addition of cells. […] After 5 days of culture, spheres >50 μm were counted using an eyepiece graticule and mammosphere numbers were normalized to control treatments (cells treated with vehicle only).

[1] = test system: MCF-7 human breast cancer cells; assay: ATP-depletion assay (CellTiter-Glo & Hoechst 33342) in MCF-7 cells; format: cell-based; details: for effect on ATP levels in initial screen (positive hit): MCF-7, ATP depletion screen of nine TPP-derivatives; for effect on ATP levels in validation (FIGS. 2-4): MCF-7 treated for 72 h; for Hoechst staining (%) / ATP level (%): MCF-7 cell line, 50 μM treatment for 72 hours, normalized to control; for Hoechst staining (%): cell viability
Excerpt: In order to identify new molecules that can be used to target mitochondria within CSCs, the inventors screened a variety of TPP-derivatives as described herein, by employing CellTiter-Glo to measure intracellular levels of ATP in adherent cancer cells (MCF-7) in 96-well plates. As 85% of cellular ATP is normally derived from mitochondrial metabolism, ATP levels are an excellent read-out to monitor mitochondrial function. In parallel, the same 96-well plates were also stained with Hoechst 33342, to measure DNA content, to gauge cell viability. Therefore, we randomly selected 9 TPP derivatives and subjected them to screening in our assay system.
With respect to the ATP-depletion assay (with CellTiter-Glo & Hoechst 33342), MCF-7 cells were treated with different TPP derivatives for 72 hours in a black 96-well plate then wells were washed with PBS and were stained with Hoechst 33342 dye at a final concentration of 10 μg/ml. Fluorescence was read by a plate reader at 355 nm (excitation), 460 nm (emission). After washing with PBS CellTiterGlo luminescent assay (Promega) was performed according to the manufacturer's protocols to determine intracellular ATP levels in the Hoechst dye stained cells. Both the fluorescent and luminescent data were normalized to control levels and were shown as percentage for comparison.

[2] = test system: normal fibroblasts (hTERT-BJ1); assay: Cell viability (Hoechst) and intracellular ATP levels in normal fibroblasts; format: cell-based, human; details: hTERT-BJ1, 1 μM, 72 h
Procedure: Cell viability and intracellular ATP levels were determined in the same treated samples. Hoechst staining (%) of hTERT-BJ1 human fibroblasts (black); ATP level (%) of hTERT-BJ1 human fibroblasts (dotted); Hoechst staining (%) of MCF-7 cells (inclined lines); ATP level (%) of MCF-7 cells (white). TPP treatments at 1 μM, 72 h. Data are represented as mean+/−SEM. *p<0.05; **p<0.01; indicates significance, all relative to the control.
With respect to cell culture and reagents, the human breast adenocarcinoma cell line (MCF-7) was from the American Type Culture Collection (ATCC). hTERT-BJ1 cells were from Clontech, Inc. MCF-7 and hTERT-BJ1 cells were grown in DMEM supplemented with 10% fetal bovine serum, GlutaMAX and 1% penicillin-streptomycin and incubated at 37 C in a humidified 5% CO2 incubator. The medium was changed 2-3 times/week. […]
With respect to the ATP-depletion assay (with CellTiter-Glo & Hoechst 33342), MCF-7 cells were treated with different TPP derivatives for 72 hours in a black 96-well plate then wells were washed with PBS and were stained with Hoechst 33342 dye at a final concentration of 10 μg/ml. Fluorescence was read by a plate reader at 355 nm (excitation), 460 nm (emission). […]

IC50 (MCF-7 breast CSCs): > 5000 nM
SMILES: c1ccc([P+](Cc2cccc3ccccc23)(c2ccccc2)c2ccccc2)cc1 [1-naphthylmethyl-TPP]
effect on mitochondrial oxygen consumption (MCF-7 cells): effectively inhibit mitochondrial oxygen consumption | effect on ATP levels in initial screen (positive hit) [1]: significantly reduced ATP levels | effect on ATP levels in validation (FIGS. 2-4) [1]: progressively deplete cellular ATP levels

SMILES: Clc1ccc(C[P+](c2ccccc2)(c2ccccc2)c2ccccc2)c(Cl)c1 [2,4-dichlorobenzyl-TPP]
effect on mitochondrial oxygen consumption (MCF-7 cells): effectively inhibit mitochondrial oxygen consumption | effect on ATP levels in initial screen (positive hit) [1]: significantly reduced ATP levels | effect on ATP levels in validation (FIGS. 2-4) [1]: progressively deplete cellular ATP levels

IC50 (MCF-7 breast CSCs): < 500 nM
SMILES: C(=CC[P+](c1ccccc1)(c1ccccc1)c1ccccc1)C[P+](c1ccccc1)(c1ccccc1)c1ccccc1 [2-butene-1,4-bis-TPP]
effect on mitochondrial oxygen consumption (MCF-7 cells): effectively inhibits mitochondrial oxygen consumption | effect on cell viability in human fibroblasts [2]: no effect on cell viability | reduction of ATP levels in human fibroblasts [2]: 25% | decrease of ATP levels in MCF-7 cancer cells ([1]; MCF-7, 1 μM, 72 h): ~85% | reduction of cell viability in MCF-7 cancer cells ([1]; MCF-7, 1 μM, 72 h): ~65% | effect on ATP levels in initial screen (positive hit) [1]: significantly reduced ATP levels | effect on ATP levels in validation (FIGS. 2-4) [1]: depletes ATP levels, relative to cell number | fold more effective at reducing ATP levels in cancer cells, relative to normal fibroblasts ([1]; MCF-7 versus hTERT-BJ1, 1 μM): 4.7 fold | fold more effective at reducing cell viability in cancer cells (versus fibroblasts) ([1]; MCF-7 versus hTERT-BJ1, 1 μM): 2.8 fold

SMILES: Clc1ccccc1C[P+](c1ccccc1)(c1ccccc1)c1ccccc1 [2-chlorobenzyl-TPP]
effect on mitochondrial oxygen consumption (MCF-7 cells): effectively inhibit mitochondrial oxygen consumption | effect on ATP levels in initial screen (positive hit) [1]: significantly reduced ATP levels | effect on ATP levels in validation (FIGS. 2-4) [1]: progressively deplete cellular ATP levels

SMILES: Cc1cccc(C[P+](c2ccccc2)(c2ccccc2)c2ccccc2)c1 [3-methylbenzyl-TPP]
effect on mitochondrial oxygen consumption (MCF-7 cells): effectively inhibit mitochondrial oxygen consumption | effect on ATP levels in initial screen (positive hit) [1]: significantly reduced ATP levels | effect on ATP levels in validation (FIGS. 2-4) [1]: progressively deplete cellular ATP levels

SMILES: N#Cc1ccc(C[P+](c2ccccc2)(c2ccccc2)c2ccccc2)cc1 [4-cyanobenzyl-TPP]
Hoechst staining (%) [1]: 72.7% | ATP level (%) [1]: 68.2%

SMILES: N#CC[P+](c1ccccc1)(c1ccccc1)c1ccccc1 [cyanomethyl-TPP]
Hoechst staining (%) [1]: 97.2% | ATP level (%) [1]: 95.1%

SMILES: CC1(C)CC(NC(=O)C[P+](c2ccccc2)(c2ccccc2)c2ccccc2)CC(C)(C)N1[O] [mito-TEMPO, (2-(2,2,6,6-Tetramethylpiperidin-1-oxyl-4-ylamino)-2-oxoethyl)triphenylphosphonium chloride, reference compound]
Hoechst staining (%) [1]: 100.0% | ATP level (%) [1]: 100.0%

SMILES: c1ccc([P+](Cc2ccc(C[P+](c3ccccc3)(c3ccccc3)c3ccccc3)cc2)(c2ccccc2)c2ccccc2)cc1 [p-xylylenebis-TPP, p-xylylene-bis-TPP]
Hoechst staining (%) [1]: 69.1% | ATP level (%) [1]: 43.9%
